Patent publication US20180353501A1 (Arvinas, Inc., priority 2017, published 2018)

Tests used:
Experiment in all cases: Western blot MAPK family degradation selectivity, MDA-MB-231 cells
Type in all cases: cell-based
Conditions in all cases: increasing concentrations
JNK1 = system: JNK1
Source text: (§1) FIGS. 12A, 12B, and 12C. Characterization of MAPK family degradation selectivity (related to FIGS. 9A, 9B, 9C, 13A, 13B, 13C, and 13D). (A) p38 MAPK family members (α, β, δ, γ) were aligned using the T-Coffee multiple sequence alignment server. Output results were then colored according to conservation (dark turquoise) and identity (lighter shades of turquoise) in Jalview. (B) Table summarizing pairwise sequence alignments (obtained in Jalview) and structural alignments for Ca atoms (obtained in PyMOL) using the doublyphosphorylated (pTGpY) active conformations of p38δ (PDB: 4MYG), p38α (PDB: 3PY3), and p38γ (PDB: 1CM8). No active conformation crystal structure of p38β currently exists. […] MAPK families are also divided based on their phosphorylation lip motif, (pTxpY). Note: JNK1 and JNK2 are expressed as two alternatively-spliced forms. JNK3 was not expressed in these cells.
(§2) To address the mechanistic questions surrounding PROTAC substrate specificity was assessed by synthesizing eight foretinib-based PROTACs that vary by linker length and by orientation of the VHL-recruiting molecule. PROTACs 1 and 48-50 (termed the ‘amide series’) were constructed using the previously-characterized “left-hand side” amide as a connection point for linker attachment to the VHL ligand, while PROTACs 5 and 45-47 (termed the ‘phenyl series’) incorporated an under-explored “right-hand side” phenyl ring attachment point of the linker to the VHL ligand (FIGS. 9A and 9B). […] PROTACs synthesized with different linker lengths, using two different points of attachment to the VHL-recruiting ligand promote distinct E3 ligase interfaces with a given p38 isoform, thereby enabling potential degradation selectivity. Indeed, this strategy of differential orientation of recruited VHL coupled with different PROTAC linker lengths enabled the identification of two PROTACs that each selectively degrade only a single p38 MAPK isoform in MDA-MB-231 cells (FIG. 9C). The examplary compound 50 and exemplary compound 46 result in potent and selective degradation of p38α and p38δ, respectively, without an observable “hook effect” within the tested dose range. […] Crucially, the DC50 for exemplary compound 50 on p38δ is >5 μM, as is the DC50 of exemplary compound 46 for p38α. Additionally, neither exemplary PROTAC degrades either of the two remaining p38 MAPK isoforms (β and γ), despite high sequence and structural conservation.
(§3) Lysates from MDA-MB-231 cells were washed once with ice cold PBS (1×), followed by lysis in buffer containing 25 mM Tris [pH 7.5], 0.25% sodium deoxycholate, 1% Triton X-100, supplemented with 1× protease inhibitor cocktail (Roche) and phosphatase inhibitors (10 mM NaF, 1 mM Na3VO4, and 20 mM β-glycerophosphate), unless otherwise noted. Lysates were spun at 14,000×g for 10 minutes at 4° C. and supernatant was evaluated for protein content using a Pierce BCA Protein Assay (Thermo Fisher Scientific). 25 to 50 μg of protein was loaded onto 10% SDS-PAGE gels or 4-20% Criterion TGX precast gradient gels (Bio-Rad), transferred to nitrocellulose membranes, and probed with the specified antibodies overnight at 4° C. in 1×TBS-Tween (Tris buffered saline plus 0.02% Tween 20) containing 5% non-fat milk. Immunoblots were visualized using a Bio-Rad ChemiDoc imaging instrument and subsequently processed and quantified using the accompanying Bio-Rad ImageLab software.

ERK2 = molecular target: T1, ERK2 (Homo sapiens, UniProt P28482)
T1 construct: with increasing concentrations of exemplary compound 50 and 46 in MDA-MB-231 cells; endogenous in cells; host or cells: MDA-MB-231
Source text: as §1, §2, §3

ERK1 = molecular target: T2, ERK1 (Homo sapiens, UniProt P27361)
T2 construct: with increasing concentrations of exemplary compound 50 and 46 in MDA-MB-231 cells; endogenous in cells; host or cells: MDA-MB-231
Source text: as §1, §2, §3

p38γ = molecular target: T3, p38γ (Homo sapiens, UniProt P53778)
T3 construct: with increasing concentrations of exemplary compound 50 and 46 in MDA-MB-231 cells; endogenous in cells; host or cells: MDA-MB-231
Source text: as §1, §2, §3

JNK2 = system: JNK2
Source text: as §1, §2, §3

p38β = molecular target: T4, p38β (Homo sapiens, UniProt Q15759)
T4 construct: with increasing concentrations of exemplary compound 50 and 46 in MDA-MB-231 cells; endogenous in cells; host or cells: MDA-MB-231
Source text: as §1, §2, §3

T1 sequence (P28482 whole entry): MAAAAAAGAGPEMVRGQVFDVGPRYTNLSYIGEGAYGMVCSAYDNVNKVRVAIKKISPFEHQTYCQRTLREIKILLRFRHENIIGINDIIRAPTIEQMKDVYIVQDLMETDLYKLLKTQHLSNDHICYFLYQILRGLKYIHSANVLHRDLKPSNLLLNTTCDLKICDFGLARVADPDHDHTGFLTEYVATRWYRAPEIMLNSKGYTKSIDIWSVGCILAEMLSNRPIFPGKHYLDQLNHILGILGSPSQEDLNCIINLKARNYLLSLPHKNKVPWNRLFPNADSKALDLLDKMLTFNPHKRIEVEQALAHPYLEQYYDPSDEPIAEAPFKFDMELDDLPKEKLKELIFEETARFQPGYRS
T4 sequence (Q15759 whole entry): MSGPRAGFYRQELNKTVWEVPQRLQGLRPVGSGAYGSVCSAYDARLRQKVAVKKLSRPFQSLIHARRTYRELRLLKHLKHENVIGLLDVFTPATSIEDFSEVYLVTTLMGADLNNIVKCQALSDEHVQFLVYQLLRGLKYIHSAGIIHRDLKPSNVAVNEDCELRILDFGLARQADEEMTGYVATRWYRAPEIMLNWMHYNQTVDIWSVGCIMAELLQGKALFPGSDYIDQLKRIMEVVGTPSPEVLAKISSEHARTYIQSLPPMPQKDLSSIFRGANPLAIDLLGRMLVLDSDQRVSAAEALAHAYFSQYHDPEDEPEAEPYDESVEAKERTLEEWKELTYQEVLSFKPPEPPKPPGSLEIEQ
T3 sequence (P53778 whole entry): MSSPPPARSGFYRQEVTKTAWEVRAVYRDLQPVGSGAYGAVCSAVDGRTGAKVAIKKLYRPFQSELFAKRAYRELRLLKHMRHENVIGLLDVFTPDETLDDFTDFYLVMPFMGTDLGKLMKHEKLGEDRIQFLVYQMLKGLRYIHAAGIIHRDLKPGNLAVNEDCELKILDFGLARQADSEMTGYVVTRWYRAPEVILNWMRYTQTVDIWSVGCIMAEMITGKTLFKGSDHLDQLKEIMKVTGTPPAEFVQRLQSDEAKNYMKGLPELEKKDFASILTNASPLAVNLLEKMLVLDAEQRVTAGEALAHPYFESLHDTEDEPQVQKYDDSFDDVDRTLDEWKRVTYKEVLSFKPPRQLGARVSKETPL
T2 sequence (P27361 whole entry): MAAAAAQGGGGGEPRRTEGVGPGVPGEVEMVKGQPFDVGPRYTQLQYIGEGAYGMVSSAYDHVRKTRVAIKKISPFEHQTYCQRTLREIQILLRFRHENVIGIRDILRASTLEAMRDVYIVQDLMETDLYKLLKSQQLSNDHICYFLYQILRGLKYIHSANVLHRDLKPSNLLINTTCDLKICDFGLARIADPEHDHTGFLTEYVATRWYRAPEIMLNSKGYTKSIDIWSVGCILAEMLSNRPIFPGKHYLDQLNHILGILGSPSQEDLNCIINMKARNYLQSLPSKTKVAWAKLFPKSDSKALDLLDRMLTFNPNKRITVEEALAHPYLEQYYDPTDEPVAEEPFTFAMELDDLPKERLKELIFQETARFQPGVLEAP

COc1cc2c(Oc3ccc(NC(=O)C4(C(=O)Nc5ccc(F)cc5)CC4)cc3F)ccnc2cc1OCCOCCOCCOc1cc(-c2scnc2C)ccc1CNC(=O)[C@@H]1C[C@@H](O)CN1C(=O)[C@H](C(C)C)N1Cc2ccccc2C1=O [compound 46]
lack of degradation: degradation of JNK1 (JNK1) | degradation of ERK2 (ERK2) | degradation of ERK1 (ERK1) | degradation of p38γ (p38γ) | degradation of JNK2 (JNK2) | degradation of p38β (p38β)

COc1cc2c(Oc3ccc(NC(=O)C4(C(=O)Nc5ccc(F)cc5)CC4)cc3F)ccnc2cc1OCCCCOCCCCOCC(=O)N[C@H](C(=O)N1C[C@H](O)C[C@H]1C(=O)NCc1ccc(-c2scnc2C)cc1)C(C)(C)C [compound 50, N-(3-fluoro-4-((7-(4-(4-(2-(((S)-1-((2S,4R)-4-hydroxy-2-((4-(4-methylthiazol-5-yl)benzyl)carbamoyl)pyrrolidin-1-yl)-3,3-dimethyl-1-oxobutan-2-yl)amino)-2-oxoethoxy)butoxy)buto-xy)-6-methoxyquinolin-4-yl)oxy)phenyl)-N-(4-fluorophenyl)cyclopropane-1,1-dicarboxa-mide]
lack of degradation: degradation of JNK1 (JNK1) | degradation of ERK2 (ERK2) | degradation of ERK1 (ERK1) | degradation of p38γ (p38γ) | degradation of JNK2 (JNK2) | degradation of p38β (p38β)
